Measured values as given in PubChem BioAssay (NCI).
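Step 1: Grow cells in 96-well plates. Step 2: Expose to compound for 48 hours at 5 concentrations. Step 3: Interpolate endpoints linearly; if unreached, use highest concentration. The concentration for 50% growth inhibition is given as GI50. TGI denotes the concentration required for complete inhibition of growth.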

Experiments:
Assay in all cases: NCI tumour cell line growth inhibition, 48 h
PC-3 prostate = test system: PC-3 prostate
786-0 renal = test system: 786-0 renal
T-47D breast = test system: T-47D breast
HOP-92 NSCLC = test system: HOP-92 NSCLC
EKVX NSCLC = test system: EKVX NSCLC
HCT-15 colon = test system: HCT-15 colon
OVCAR-5 ovarian = test system: OVCAR-5 ovarian
SN12C renal = test system: SN12C renal
IGROV1 ovarian = test system: IGROV1 ovarian
OVCAR-8 ovarian = test system: OVCAR-8 ovarian

Structure (SMILES) | TGI (PC-3 prostate) [µM] | TGI (786-0 renal) [µM] | TGI (T-47D breast) [µM] | TGI (HOP-92 NSCLC) [µM] | TGI (EKVX NSCLC) [µM] | TGI (HCT-15 colon) [µM] | TGI (OVCAR-5 ovarian) [µM] | TGI (SN12C renal) [µM] | TGI (IGROV1 ovarian) [µM] | TGI (OVCAR-8 ovarian) [µM] | GI50 (PC-3 prostate) [µM] | GI50 (T-47D breast) [µM] | GI50 (IGROV1 ovarian) [µM] | GI50 (HOP-92 NSCLC) [µM] | GI50 (EKVX NSCLC) [µM] | GI50 (OVCAR-8 ovarian) [µM] | GI50 (OVCAR-5 ovarian) [µM] | GI50 (SN12C renal) [µM]
COc1ccc(NC(=O)c2cc(NC(=O)/C=C/c3ccccc3)c(OC)c(OC)c2)cc1 | > 100 | > 100 | > 100 | > 100 | > 100 | > 100 | > 100 | > 100 |  |  |  |  |  |  |  |  |  | 
CS(=O)(=O)c1nc(-c2cc3c(c(S(C)(=O)=O)n2)CCC3)cc2c1CCC2 | > 100 | > 100 |  |  | > 100 | > 100 | > 100 | > 100 | 85.1 | > 100 |  |  |  |  |  |  |  | 
CC1(C)OC2C(CO)OC(/N=C(\NC#N)Oc3ccccc3)C2O1 (stereo not given) |  |  |  |  | > 100 | > 100 | > 100 | > 100 | > 100 | > 100 |  |  |  |  |  |  |  | 
O=C(/C=C/c1ccco1)c1ccc(Nc2ccnc3cc(Cl)ccc23)cc1 | 41.3 |  | > 100 | 62 | > 100 |  | > 100 | > 100 | > 100 | > 100 | 4.99 | 82.2 | 15.2 | 15 | > 100 | > 100 | 52 | > 100
Nc1nc(-c2ccccc2)cc(-c2ccc(F)cc2)c1-c1ccc(Cl)cc1 | > 100 | > 100 | > 100 |  | > 100 | > 100 | > 100 | > 100 | > 100 | > 100 |  |  |  |  |  |  |  | 
Cn1c(=O)c2[nH]c(Nc3ccccc3)nc2n(C)c1=O | > 10 | > 10 | > 10 | > 10 | > 10 | > 10 |  | > 10 | > 10 | > 10 |  |  |  |  |  |  |  | 
CSCC[C@@H](NC(=O)[C@H](CC(C)C)NC(=O)C(Cc1cnc[nH]1)NC(=O)CNC(=O)[C@@H](NC(=O)[C@H](C)NC(=O)[C@H](Cc1cn(C=O)c2ccccc12)NC(=O)[C@H](CCC(N)=O)NC(=O)[C@@H](N)CC(N)=O)C(C)C)C(N)=O (stereo not given in full) |  |  |  |  | > 100 | > 100 | > 100 | > 100 | > 100 | > 100 |  |  |  |  |  |  |  | 
Oc1cccc(-c2cc(=S)ss2)c1 | 28.3 | 36.2 |  | 28.5 | 31.5 | 31.4 | 30.8 | 36.5 | 29.8 | 49.9 |  |  |  |  |  |  |  | 
CC(=O)Nc1ccc(S(=O)(=O)/N=c2/sc(S(N)(=O)=O)nn2C)cc1 | > 100 | > 100 |  | > 100 | > 100 | > 100 | > 100 |  |  | > 100 |  |  |  |  |  |  |  | 
O=C(O)CC(Cc1ccccc1)C(=O)O (stereo not given) | > 100 | > 100 | > 100 |  | > 100 | > 100 | > 100 | > 100 | > 100 | > 100 |  |  |  |  |  |  |  | 
CC12CCC3=C(CSC4=C3CSc3ccccc34)C1=CCCC2=O (stereo not given) |  |  |  |  | > 100 | > 100 | > 100 | > 100 |  | > 100 |  |  |  |  |  |  |  | 
COc1c2c(cc3oc(=O)ccc13)OC(C)(C)C=C2 |  | 63.8 | 23.6 | 34.1 | > 125 | 65.5 |  | 100 | 75.7 | 75.1 |  |  |  |  |  |  |  | 
